The results in this text go back to ChEMBL document CHEMBL1201862, “PubChem BioAssay data set” (2004).

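In this assay, cells in 96-well plates receive the compound at five concentrations for 48 hours. Endpoints are linearly interpolated between the surrounding concentrations. Abbreviation: GI50, concentration required for 50% inhibition of growth.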 Activity calls are given as the source filed them. Cut-off read from the data, not from the text of the source: active = GI50 up to about 1.1 µM and inactive = higher.

Assay in all cases: inhibition of tumour cell growth, NCI panel, 48 h
Experiment [1] has as its system SF-295.
For experiment [2], the system named is XF498.
Experiment [3] relates to DMS-114.
Experiment [4] deals with HOP-18.
The subject of experiment [5] is UO-31.
Experiment [6] concerns HCT-15.
The test system of experiment [7] is A498.
For experiment [8], the system named is SNB-78.
For experiment [9], the system named is M19-MEL.
Experiment [10] has as its system EKVX.
Experiment [11] relates to DLD-1.
Experiment [12] has as its system HT-29.
The subject of experiment [13] is SN12C.
In experiment [14] the test system is KM12.
In experiment [15] the test system is RPMI-8226.
For experiment [16], the system named is COLO 205.
Experiment [17] has as its system DU-145.
In experiment [18] the test system is T47D.
Experiment [19] concerns MDA-MB-231.
In experiment [20] the test system is NCI/ADR-RES.

With `O=c1[nH]c(Br)nc2c(Br)c[nH]c12`, the GI50 in experiment [1] was > 100 µM (inactive); in experiment [2], > 100 µM (inactive); in experiment [3], > 100 µM (inactive); in experiment [4] it was > 100 µM (inactive); in experiment [5], > 100 µM (inactive); in experiment [6], more than 100 µM. In addition, the GI50 in [7], in [8], in [9], in experiment [10], in experiment [11] and in [12] was > 100 µM (inactive) in each case. The GI50 in [13], in experiment [14], in experiment [15] and in experiment [16] was > 100 µM (inactive) in each case.
On to `N#Cc1cc(NC(=O)c2ccccc2)c(=O)n2c1[nH]c1ccccc12`, for which the GI50 in [1] is 71 µM (inactive); in [2], 31.4 µM (inactive); in [3], 23 µM (inactive); in experiment [4], 7.45 µM (inactive); in experiment [5] it was 18.3 µM (inactive); in experiment [6], 31 µM. The GI50 in [7] is 22.7 µM (inactive); in experiment [8] it was 35 µM (inactive); in experiment [9], 30.1 µM (inactive); in experiment [10], 36.3 µM (inactive); in [11], 28.9 µM (inactive); in experiment [12], 48.5 µM (inactive). For the same molecule, the GI50 in [13] is 29.1 µM (inactive); in experiment [14], 43.9 µM (inactive); in experiment [15] it was 11.7 µM (inactive); in experiment [16] it was 31.6 µM (inactive).
Consider `N[C@H](COCc1ccccc1)c1ccccc1`, for which the GI50 in [1] was 30.5 µM (inactive); in experiment [2], 21.1 µM (inactive); in experiment [3], 23.2 µM (inactive); in experiment [4], 25.9 µM (inactive); in experiment [5] it was 30.3 µM (inactive); in experiment [6] it was more than 50.5 µM. For the same molecule, the GI50 was 32.4 µM (inactive) in experiment [7]; 33.4 µM (inactive) in [8]; 25 µM (inactive) in experiment [9]; 33 µM (inactive) in experiment [10]; 24.9 µM (inactive) in experiment [11]; 28.8 µM (inactive) in experiment [12]. The GI50 in [13] is 27.7 µM (inactive); in experiment [14], 27.4 µM (inactive); in [15], 13.1 µM (inactive); in [16], 14.9 µM (inactive).
Regarding `SCc1ccc(-c2ccc(CS)cc2)cc1`, the GI50 in [1] was 8.97 µM (inactive); in [2], 20.6 µM (inactive); in experiment [3], 12.5 µM (inactive); in experiment [4] it was 16.4 µM (inactive); in experiment [5] it was 18.4 µM (inactive); in experiment [17], > 10 µM (inactive). The GI50 in [6] is 17.6 µM; in [7], 36.5 µM (inactive); in experiment [8], 18.3 µM (inactive); in experiment [9], 18.6 µM (inactive); in experiment [10], 26 µM (inactive); in experiment [18] it was 19.7 µM (inactive). Besides, the GI50 in [19] was 11.2 µM (inactive); in experiment [20], 7.16 µM (inactive); in [11] it was 17 µM (inactive); in experiment [12] it was 26.9 µM (inactive); in experiment [13], 26.3 µM (inactive); in experiment [14], 3.11 µM (inactive). The GI50 in experiment [15] was 8.77 µM (inactive); in experiment [16] it was 18 µM (inactive).
For `Cc1cccc(C)c1NC(=O)C(=O)C(C#N)c1ccccc1Cl` (stereo not given), the GI50 in experiment [1] is > 100 µM (inactive); in [2], > 100 µM (inactive); in [3], > 100 µM (inactive); in experiment [4], 91.4 µM (inactive); in [5], > 100 µM (inactive); in experiment [6], more than 100 µM. Further, the GI50 in [7], in experiment [8], in experiment [9], in [10], in experiment [11] and in experiment [12] was > 100 µM (inactive) in each case. Besides, the GI50 in experiment [13], in experiment [14], in experiment [15] and in [16] was > 100 µM (inactive) throughout.
Turning to `O=C1OC(=O)C2C1C1(c3ccccc3)OC2(c2ccccc2)c2c(Br)c(Br)c(Br)c(Br)c21` (stereo not given), the GI50 is > 100 µM (inactive) in [1]; > 100 µM (inactive) in experiment [2]; > 100 µM (inactive) in [3]; > 100 µM (inactive) in [4]; > 100 µM (inactive) in experiment [5]; more than 100 µM in experiment [6]. In addition, the GI50 in experiment [7] was > 100 µM (inactive); in experiment [8] it was 83.8 µM (inactive); in experiment [9], > 100 µM (inactive); in experiment [10], > 100 µM (inactive); in experiment [11] it was > 100 µM (inactive); in experiment [12], > 100 µM (inactive). Besides, the GI50 in [13], in [14], in experiment [15] and in experiment [16] was > 100 µM (inactive) throughout.
In the case of `O=C(NCCCCCCNC(=O)n1cc(F)c(=O)[nH]c1=O)NCCCOCCOCCOCCOCCOCCOCCOCCOCCOCCOCCOCCOCCOCCOCCOCCOCCOCCOCCOCCOCCOCCCNC(=O)C(O)C(O)C(OC1OC(CO)C(O)C(O)C1O)C(O)CO` (stereo not given), the GI50 in experiment [1] is 64.9 µM (inactive); in experiment [2], > 100 µM (inactive); in experiment [3], > 100 µM (inactive); in [4] it was > 37 µM (inactive); in [5] it was 13.4 µM (inactive); in [17], 27.7 µM (inactive). Moreover, the GI50 was 17.5 µM in [6]; 18.6 µM (inactive) in experiment [7]; > 100 µM (inactive) in experiment [8]; 64.3 µM (inactive) in experiment [9]; > 88.9 µM (inactive) in [10]; 85.7 µM (inactive) in experiment [18]. For the same molecule, the GI50 was > 71.4 µM (inactive) in experiment [19]; 47.2 µM (inactive) in experiment [20]; 22.6 µM (inactive) in experiment [11]; 11 µM (inactive) in [12]; 56.5 µM (inactive) in [13]; 19.6 µM (inactive) in experiment [14]. Moreover, the figures for the GI50 in experiment [15] and in experiment [16] were 17 µM (inactive) and 15.3 µM (inactive), respectively.
